Data as given in ChEMBL document CHEMBL4295262, “Evaluation of the utility of stem-cell derived cardiomyocytes for drug proarrhythmic potential” (2019).

Experiments:
Conditions in all cases: human, ipsc-cm
[1] = (§1) Electrical activity assay on cell lines treated with a given drug. DMSO was used as a vehicle and a control, unblinded dofetilide was used as a control.
[2] = as §1; type: ADME, cell-based; parameters: FPDc: unit not given here
[3] = as §1; remark: listed apart in the source
[4] = as §1; type: cell-based; parameters: APDc: unit not given here
[5] = as §1; type: ADME, cell-based
[6] = as §1; remark: listed apart in the source
[7] = as §1; remark: listed apart in the source
[8] = 0.0001 µM, concentration (um) 0.0001 uM
[9] = 0.001 µM, concentration (um) 0.001 uM
[10] = 0.01 µM, concentration (um) 0.01 uM
[11] = 0.1 µM, concentration (um) 0.1 uM
[12] = 0.0009507 µM, concentration (um) 0.000950736 uM
[13] = 0.003004 µM, concentration (um) 0.00300433 uM
[14] = 0.009494 µM, concentration (um) 0.00949367 uM
[15] = 0.03 µM, concentration (um) 0.03 uM
[16] = 0.03169 µM, concentration (um) 0.0316912 uM
[17] = 0.1001 µM, concentration (um) 0.100144 uM
[18] = 0.3165 µM, concentration (um) 0.316456 uM
[19] = 0.003 µM, concentration (um) 0.003 uM
[20] = 0.3 µM, concentration (um) 0.3 uM

Structure (SMILES): COc1ccc(CCN2CCC(Nc3nc4ccccc4n3Cc3ccc(F)cc3)CC2)cc1 [ASTEMIZOLE]
- FPD measurement ([1]; 0.0001 µM): 55.11 FPDc
- FPDc ([1]; 0.0001 µM): 55.11
- FPD measurement ([1]; 0.001 µM): 55.33 FPDc
- FPDc ([1]; 0.001 µM): 55.33
- FPD measurement ([1]; 0.01 µM): 57.8 FPDc
- FPDc ([1]; 0.01 µM): 57.8
- FPD measurement ([1]; 0.1 µM): 75.34 FPDc
- FPDc ([1]; 0.1 µM): 75.34
- FPD measurement [2, 8]: 5 Values Out Of 5 Were Excluded Due To Quiescence Or 0 Apdc
- FPDc [2, 8]: 53.45
- FPD measurement [2, 9]: 5 Values Out Of 5 Were Excluded Due To Quiescence Or 0 Apdc
- FPDc [2, 9]: 49.25
- FPD measurement [2, 10]: 5 Values Out Of 5 Were Excluded Due To Quiescence Or 0 Apdc
- FPDc [2, 10]: 53.23
- FPD measurement [2, 11]: 5 Values Out Of 5 Were Excluded Due To Quiescence Or 0 Apdc
- FPDc [2, 11]: 40.28
- FPD measurement ([3]; 0.0001 µM): 1 Values Out Of 1 Were Excluded Due To Quiescence Or 0 Fpdc
- FPDc ([3]; 0.0001 µM): 1 Values Out Of 1 Were Excluded Due To Quiescence Or 0 Fpdc
- FPD measurement ([3]; 0.001 µM): 1 Values Out Of 1 Were Excluded Due To Quiescence Or 0 Fpdc
- FPDc ([3]; 0.001 µM): 1 Values Out Of 1 Were Excluded Due To Quiescence Or 0 Fpdc
- FPD measurement ([3]; 0.01 µM): 1 Values Out Of 1 Were Excluded Due To Quiescence Or 0 Fpdc
- FPDc ([3]; 0.01 µM): 1 Values Out Of 1 Were Excluded Due To Quiescence Or 0 Fpdc
- FPD measurement ([3]; 0.1 µM): 1 Values Out Of 1 Were Excluded Due To Quiescence Or 0 Fpdc
- FPDc ([3]; 0.1 µM): 1 Values Out Of 1 Were Excluded Due To Quiescence Or 0 Fpdc
- APDc [4, 8]: 54.17
- FPD measurement [4, 8]: 54.17 FPDc
- APDc [4, 9]: 53.88
- FPD measurement [4, 9]: 53.88 FPDc
- APDc [4, 10]: 57.03
- FPD measurement [4, 10]: 57.03 FPDc
- APDc [4, 11]: 77.9
- FPD measurement [4, 11]: 77.9 FPDc

Structure (SMILES): O=c1[nH]c2ccccc2n1C1CCN(CCCC(c2ccc(F)cc2)c2ccc(F)cc2)CC1 [PIMOZIDE]
- FPDc [2, 12]: 18.43
- FPD measurement [2, 13]: 5 Values Out Of 5 Were Excluded Due To Quiescence Or 0 Apdc
- FPDc [2, 13]: 26.86
- FPDc [2, 14]: 37.06
- FPDc [2, 15]: 13.57
- FPD measurement [5, 12]: 46.31 FPDc
- FPDc [5, 12]: 6 Values Out Of 6 Were Excluded Due To Quiescence Or 0 Fpdc
- FPD measurement [5, 13]: 49.59 FPDc
- FPDc [5, 13]: 6 Values Out Of 6 Were Excluded Due To Quiescence Or 0 Fpdc
- FPD measurement [5, 14]: 61.97 FPDc
- FPDc [5, 14]: 6 Values Out Of 6 Were Excluded Due To Quiescence Or 0 Fpdc
- FPD measurement [5, 15]: 56.98 FPDc
- FPDc [5, 15]: 6 Values Out Of 6 Were Excluded Due To Quiescence Or 0 Fpdc
- FPD measurement ([3]; 0.0009507 µM): 1 Values Out Of 1 Were Excluded Due To Quiescence Or 0 Fpdc
- FPDc ([3]; 0.0009507 µM): 1 Values Out Of 1 Were Excluded Due To Quiescence Or 0 Fpdc
- FPD measurement ([3]; 0.003004 µM): 1 Values Out Of 1 Were Excluded Due To Quiescence Or 0 Fpdc
- FPDc ([3]; 0.003004 µM): 1 Values Out Of 1 Were Excluded Due To Quiescence Or 0 Fpdc
- FPD measurement ([3]; 0.009494 µM): 1 Values Out Of 1 Were Excluded Due To Quiescence Or 0 Fpdc
- FPDc ([3]; 0.009494 µM): 1 Values Out Of 1 Were Excluded Due To Quiescence Or 0 Fpdc
- FPD measurement ([3]; 0.03 µM): 1 Values Out Of 1 Were Excluded Due To Quiescence Or 0 Fpdc
- FPDc ([3]; 0.03 µM): 1 Values Out Of 1 Were Excluded Due To Quiescence Or 0 Fpdc
- APDc [4, 12]: 66.03
- FPD measurement [4, 12]: 66.03 FPDc
- APDc [4, 13]: 67.09
- FPD measurement [4, 13]: 67.09 FPDc
- APDc [4, 14]: 74.77
- FPD measurement [4, 14]: 74.77 FPDc
- APDc [4, 15]: 98.75
- FPD measurement [4, 15]: 98.75 FPDc

Structure (SMILES): O=C(CCCN1CC=C(n2c(=O)[nH]c3ccccc32)CC1)c1ccc(F)cc1 [DROPERIDOL]
- FPD measurement [5, 16]: 60.21 FPDc
- FPDc [5, 16]: 6 Values Out Of 6 Were Excluded Due To Quiescence Or 0 Fpdc
- FPD measurement [5, 17]: 132.5 FPDc
- FPDc [5, 17]: 6 Values Out Of 6 Were Excluded Due To Quiescence Or 0 Fpdc
- FPD measurement [5, 18]: 151.8 FPDc
- FPDc [5, 18]: 6 Values Out Of 6 Were Excluded Due To Quiescence Or 0 Fpdc
- FPD measurement ([5]; 1 µM, concentration (um) 1 uM): 41.51 FPDc
- FPDc ([5]; 1 µM, concentration (um) 1 uM): 6 Values Out Of 6 Were Excluded Due To Quiescence Or 0 Fpdc
- APDc ([6]; 0.03169 µM): 57.78
- FPD measurement ([6]; 0.03169 µM): 57.78 FPDc
- APDc ([6]; 0.1001 µM): 53.48
- FPD measurement ([6]; 0.1001 µM): 53.48 FPDc
- APDc ([6]; 0.3165 µM): 58.08
- FPD measurement ([6]; 0.3165 µM): 58.08 FPDc
- APDc ([6]; 1 µM): 67.51
- FPD measurement ([6]; 1 µM): 67.51 FPDc
- FPDc ([7]; 0.03169 µM): 71.23
- FPDc ([7]; 0.1001 µM): 90.23
- FPDc ([7]; 0.3165 µM): 123.3
- FPDc ([7]; 1 µM): More Than Half The Wells Had A Quiescence Event Or Fpdc Readings Of 0
- FPD measurement ([3]; 0.03169 µM): 1 Values Out Of 1 Were Excluded Due To Quiescence Or 0 Fpdc
- FPDc ([3]; 0.03169 µM): 1 Values Out Of 1 Were Excluded Due To Quiescence Or 0 Fpdc
- FPD measurement ([3]; 0.1001 µM): 1 Values Out Of 1 Were Excluded Due To Quiescence Or 0 Fpdc
- FPDc ([3]; 0.1001 µM): 1 Values Out Of 1 Were Excluded Due To Quiescence Or 0 Fpdc
- FPD measurement ([3]; 0.3165 µM): 1 Values Out Of 1 Were Excluded Due To Quiescence Or 0 Fpdc
- FPDc ([3]; 0.3165 µM): 1 Values Out Of 1 Were Excluded Due To Quiescence Or 0 Fpdc
- FPD measurement ([3]; 1 µM): 1 Values Out Of 1 Were Excluded Due To Quiescence Or 0 Fpdc
- FPDc ([3]; 1 µM): 1 Values Out Of 1 Were Excluded Due To Quiescence Or 0 Fpdc

Structure (SMILES): O=c1[nH]c2ccccc2n1CCCN1CCC(n2c(=O)[nH]c3cc(Cl)ccc32)CC1 [DOMPERIDONE]
- FPD measurement [5, 19]: 47.3 FPDc
- FPDc [5, 19]: 6 Values Out Of 6 Were Excluded Due To Quiescence Or 0 Fpdc
- FPD measurement [5, 15]: 85.58 FPDc
- FPDc [5, 15]: 6 Values Out Of 6 Were Excluded Due To Quiescence Or 0 Fpdc
- FPD measurement [5, 20]: 42.56 FPDc
- FPDc [5, 20]: 6 Values Out Of 6 Were Excluded Due To Quiescence Or 0 Fpdc
- FPDc ([5]; 3 µM, concentration (um) 3 uM): 6 Values Out Of 6 Were Excluded Due To Quiescence Or 0 Fpdc
- APDc ([6]; 0.003 µM): 72.4
- FPD measurement ([6]; 0.003 µM): 72.4 FPDc
- APDc ([6]; 0.03 µM): 67
- FPD measurement ([6]; 0.03 µM): 67 FPDc
- APDc ([6]; 0.3 µM): 78.3
- FPD measurement ([6]; 0.3 µM): 78.3 FPDc
- APDc ([6]; 3 µM): More Than Half The Wells Had A Quiescence Event Or Apdc Readings Of 0
- FPD measurement ([6]; 3 µM): More Than Half The Wells Had A Quiescence Event Or Apdc Readings Of 0
- FPDc ([7]; 0.003 µM): 73.87
- FPDc ([7]; 0.03 µM): 88.38
- FPDc ([7]; 0.3 µM): More Than Half The Wells Had A Quiescence Event Or Fpdc Readings Of 0
- FPD measurement ([7]; 3 µM): More Than Half The Wells Had A Quiescence Event Or Apdc Readings Of 0
- FPDc ([7]; 3 µM): More Than Half The Wells Had A Quiescence Event Or Fpdc Readings Of 0
